# System: filaggrin
# Assay: Filaggrin protein expression in keratinocytes (PROTEINSIMPLE SIMON western blotting bioassay)
# Type: cell-based, human
# Details: 1% tested, 24 to 36 hours
# Description: Changes in the production of filaggrin in keratinocytes due to each of the active ingredients, any one of the combination of ingredients, or compositions having said combinations disclosed in the specification can be measured. Filaggrin is the precursor to Natural Moisturizing Factor (NMF) in the skin. Increased NMF increases the moisture content of the skin.
# Filaggrin production in treated and non-treated keratinocytes was determined using the PROTEINSIMPLE® SIMON™ western blotting bioassay that employs an antibody specific for filaggrin to quantitatively detect filaggrin concentration in keratinocyte cell lysates. The treated group of keratinocytes was treated with 1% of calcium or an extract of Laminaria saccharina, marine plankton, Opuntia ficus-indica, Imperata cylindrical, or Verbena officinalis (1%).
# For each sample, normal human epidermal keratinocytes (NHEK) were grown in EPI-200—Mattek EPILIFE™ growth media with calcium from Life Technologies (M-EP-500-CA). […] The protein concentrations of the samples were determined and used to normalize the samples. The lysates were stored at −80° C. until used in the quantification assay. […] The chemiluminescent development was stopped at a specific time and the intensity of the chemiluminescent signal was measured (reported as Area Under Curve, AUC in Table 3 below) and compared to controls.
compound,measurement,setting,value
[Ca+2] [Calcium],% Ctrl (increase in filaggrin protein expression),"NHEK, compared to controls",15.60%
same,"AUC (intensity of the chemiluminescent signal, filaggrin)","normal human epidermal keratinocytes (NHEK), control AUC 70848",81899

# Source: US20210330578A1, “TOPICAL COSMETIC COMPOSITIONS” (Mary Kay Inc., priority 2020, published 2021)
